Measurements as given in patent US20030186887A1, “Compounds for detection of infection by chlamydophila abortus” (priority 2000, published 2003).
Ends that are not written are not given here. * marks the point of attachment. Biotin = O=C1N[C@H]2[C@H](CS[C@H]2CCCCC(=O)*)N1

Experiments:
[1] = tested on: sera from ewes known not to have been infected with C. abortus; SPF lamb antisera; test: ELISA, specificity of peptides with sera from uninfected ewes and SPF lamb antisera (first Table 4); type: binding, sheep; design: reactivity with serum (quantity not given): unit not given here
Method: (§1) Application of the peptide mixture is performed as follows:
(§2) Two dilutions of standard serum are used.
Specificities of Peptides 2-9,2-10, 1B, 1A/1A and 4B/4B as tested with sera from ewes known not to have been infected with C. abortus, and which had shown positive reactivity in previous tests with various forms of VS 1 and VS2.

antibodies to C. abortus = test: ELISA, serological reactivity of biotinylated peptides against serum dilutions (Tables 1 and 2); type: binding, sheep
Method: as §1, §2
The data illustrate that the length of compound has a major impact on serological reactivity.
Thus, substitutions within the core epitopes described in this invention are possible without too much loss in compound serological reactivity.

[2] = SPF lamb antiserum 2406/2 C.ab, vaccinated with 28/68 (C. abortus)
[3] = SPF lamb antiserum 2407/2 W73, vaccinated with W73 (C. pecorum)
[4] = SPF lamb antiserum F6/2 Cap.ab, vaccinated with Cap. abortion 15 (C. abortus)
[5] = SPF lamb serum 2397/1, pre-vaccination
[6] = SPF lamb antiserum 2397/2 C.ab, vaccinated with S26/3 (C. abortus)
[7] = SPF lamb antiserum 2401/2 C.ab, vaccinated with S26/3 (C. abortus)
[8] = SPF lamb antiserum 2405/2 C.ab, vaccinated with 28/28 (C. abortus)

ATALDTSNKFATALDTSNKFA (ATALDTSNKFATALDTSNKFA) [Compound 4B/4B]
reactivity with serum (quantity not given) [1, 2]: OVER
reactivity with serum (quantity not given) [1, 3]: 0.8
reactivity with serum (quantity not given) ([1]; SPF lamb antiserum F1/2 S45, vaccinated with S45 (C. suis)): 1.2
reactivity with serum (quantity not given) [1, 4]: 0.7
reactivity with serum (quantity not given) ([1]; SPF lamb antiserum F8/2 P787, vaccinated with P787 (C. pecorum)): 0.4
reactivity with serum (quantity not given) [1, 5]: 0.8
reactivity with serum (quantity not given) ([1]; SPF lamb serum F1/1, pre-vaccination): 0.5
reactivity with serum (quantity not given) ([1]; serum of animal no. 3178): 0.6
reactivity with serum (quantity not given) ([1]; serum of animal no. 3201): 1.7
reactivity with serum (quantity not given) ([1]; serum of animal no. A2213): OVER
reactivity with serum (quantity not given) ([1]; serum of animal no. A2261): 0.4
reactivity with serum (quantity not given) ([1]; serum of animal no. B2123): 0.4
reactivity with serum (quantity not given) ([1]; serum of animal no. X2895): 0.5
reactivity with serum (quantity not given) ([1]; serum of animal no. X2899): 0.4
reactivity with serum (quantity not given) ([1]; serum of animal no. Z148): 0.7
reactivity with serum (quantity not given) ([1]; serum of animal no. Z2618): 0.55
reactivity with serum (quantity not given) ([1]; serum of animal no. Z2646): 1.0
reactivity with serum (quantity not given) ([1]; serum of animal no. Z2739): 0.4

Biotin-CLIGVKGSSAAD [Compound 2-4]
Net Optical Density (antibodies to C. abortus; serum dilution 1/100): 2.173
Net Optical Density (antibodies to C. abortus; serum dilution 1/200): 1.241
Net Optical Density (antibodies to C. abortus; serum dilution 1/400): 0.572
Net Optical Density (antibodies to C. abortus; serum dilution 1/800): 0.278
Net Optical Density (antibodies to C. abortus; serum dilution 1/1600): 0.133
Net Optical Density (antibodies to C. abortus; serum dilution 1/3200): 0.064
Net Optical Density (antibodies to C. abortus; serum dilution 1/6400): 0.040

Biotin-KGSSIAAD [Compound 2-1]
Net Optical Density (antibodies to C. abortus; serum dilution 1/100): 0.000
Net Optical Density (antibodies to C. abortus; serum dilution 1/200): 0.000
Net Optical Density (antibodies to C. abortus; serum dilution 1/400): 0.000
Net Optical Density (antibodies to C. abortus; serum dilution 1/800): 0.000
Net Optical Density (antibodies to C. abortus; serum dilution 1/1600): 0.000
Net Optical Density (antibodies to C. abortus; serum dilution 1/3200): 0.000
Net Optical Density (antibodies to C. abortus; serum dilution 1/6400): 0.000
reactivity (in words) (antibodies to C. abortus; studies of Table 1): no reactivity whatsoever

GVKGSSIAADQGVKGSSIAADQ (GVKGSSIAADQGVKGSSIAADQ) [Compound 2-10]
reactivity with serum (quantity not given) [1, 6]: 3.1
reactivity with serum (quantity not given) [1, 7]: 1.5
reactivity with serum (quantity not given) [1, 8]: 2.6
reactivity with serum (quantity not given) [1, 2]: 1.6
reactivity with serum (quantity not given) ([1]; serum of animal no. 1354R): 0.9
reactivity with serum (quantity not given) ([1]; serum of animal no. 1715T): 0.3
reactivity with serum (quantity not given) ([1]; serum of animal no. 2948): 0.5
reactivity with serum (quantity not given) ([1]; serum of animal no. 3174): 1.3
reactivity with serum (quantity not given) ([1]; serum of animal no. A2332): 1.0
reactivity with serum (quantity not given) ([1]; serum of animal no. Z2600): 1.1
reactivity with serum (quantity not given) ([1]; serum of animal no. Z2708): 0.55

KTITGMTGTAAANYKTITGM (KTITGMTGTAAANYKTITGM) [Compound 1B]
reactivity with serum (quantity not given) [1, 6]: OVER
reactivity with serum (quantity not given) [1, 7]: OVER
reactivity with serum (quantity not given) [1, 8]: OVER
reactivity with serum (quantity not given) [1, 2]: OVER
reactivity with serum (quantity not given) [1, 3]: 1.3
reactivity with serum (quantity not given) [1, 4]: 0.9
reactivity with serum (quantity not given) [1, 5]: OVER
reactivity with serum (quantity not given) ([1]; serum of animal no. 1354R): 2.3
reactivity with serum (quantity not given) ([1]; serum of animal no. 3178): 0.7
reactivity with serum (quantity not given) ([1]; serum of animal no. A2213): OVER
reactivity with serum (quantity not given) ([1]; serum of animal no. B2123): 1.55
reactivity with serum (quantity not given) ([1]; serum of animal no. Z2611): 0.6
reactivity with serum (quantity not given) ([1]; serum of animal no. Z2680): 0.5

TGTAAANYKTTGTAAANYKT (TGTAAANYKTTGTAAANYKT) [Compound 1A/1A]
specificity compared with 1B (in words) [1]: less specific
reactivity with serum (quantity not given) [1, 6]: OVER
reactivity with serum (quantity not given) [1, 7]: OVER
reactivity with serum (quantity not given) [1, 8]: OVER
reactivity with serum (quantity not given) [1, 2]: OVER
reactivity with serum (quantity not given) [1, 3]: 1.8
reactivity with serum (quantity not given) ([1]; SPF lamb antiserum F4/2 84-796, vaccinated with 84-796 (C. pecorum)): 0.4
reactivity with serum (quantity not given) [1, 4]: 0.9
reactivity with serum (quantity not given) ([1]; SPF lamb antiserum F7/2 P787, vaccinated with P787 (C. pecorum)): 0.5
reactivity with serum (quantity not given) [1, 5]: OVER
reactivity with serum (quantity not given) ([1]; serum of animal no. 1354R): 2.3
reactivity with serum (quantity not given) ([1]; serum of animal no. 2948): 0.6
reactivity with serum (quantity not given) ([1]; serum of animal no. A2213): OVER
reactivity with serum (quantity not given) ([1]; serum of animal no. A2261): 0.7
reactivity with serum (quantity not given) ([1]; serum of animal no. B2123): 2.0
reactivity with serum (quantity not given) ([1]; serum of animal no. Y10-8-14): 1.2
reactivity with serum (quantity not given) ([1]; serum of animal no. Y10-8-37): 0.8
reactivity with serum (quantity not given) ([1]; serum of animal no. Z2611): 1.0
reactivity with serum (quantity not given) ([1]; serum of animal no. Z2646): 0.4
reactivity with serum (quantity not given) ([1]; serum of animal no. Z2656): 0.66
